From ChEMBL document CHEMBL3769377, “A synthesis, in silico, in vitro and in vivo study of thieno[2,3-b]pyridine anticancer analogues” (Medchemcomm, 2015)
The source made the active and inactive calls. No cut-off for these calls is given here.

Experiments:
[1] = Growth inhibition of human NCI60 cells assessed as cell growth at 10 uM after 48 hrs by sulforhodamine B assay relative to control; format: functional; conditions: NCI60, 48 h, read-out: Activity
MDA-MB-468 [2] = assay: Cytotoxicity against human MDA-MB-468 cells assessed as cell death at 100 uM after 48 hrs by sulforhodamine B assay; format: functional, cell-based
786-0 [3] = assay: Cytotoxicity against human 786-0 cells after 48 hrs by sulforhodamine B assay; format: functional; conditions: 786-0, 48 h; for CC50: read-out: LC50 (the source's name)
SF-539 [4] = assay: Cytotoxicity against human SF539 cells assessed as assessed as cell death at 100 uM after 48 hrs by sulforhodamine B assay; format: functional, cell-based
786-0 [5] = assay: Cytotoxicity against human 786-0 cells assessed as cell death at 100 uM after 48 hrs by sulforhodamine B assay; format: functional, cell-based
MDA-MB-435 [6] = assay: Cytotoxicity against human MDA-MB-435 cells after 48 hrs by sulforhodamine B assay; format: functional; conditions: MDA-MB-435, 48 h; for CC50: read-out: LC50 (the source's name)
MDA-MB-468 [7] = assay: Cytotoxicity against human MDA-MB-468 cells after 48 hrs by sulforhodamine B assay; format: functional; conditions: MDA-MB-468, 48 h; for CC50: read-out: LC50 (the source's name)
[8] = Cytotoxicity against human SF539 cells after 48 hrs by sulforhodamine B assay; format: functional; conditions: SF-539, 48 h; for CC50: read-out: LC50 (the source's name)
MDA-MB-435 [9] = assay: Cytotoxicity against human MDA-MB-435 cells assessed as cell death at 100 uM after 48 hrs by sulforhodamine B assay; format: functional, cell-based
[10] = molecular target: Tyrosyl-DNA phosphodiesterase 1 (Homo sapiens, UniProt Q9NUW8); assay: Inhibition of recombinant human N-terminal His-tagged TDP1 (1824 bp) expressed in Escherichia coli BL21(DE3) cells using 5'-(5,6 FAM-AAC GTC AGG GTC TTC C-BHQ1)-3' as substrate measured every 1 min by RT-PCR method
Tyrosyl-DNA phosphodiesterase 1, sequence (Q9NUW8 whole entry): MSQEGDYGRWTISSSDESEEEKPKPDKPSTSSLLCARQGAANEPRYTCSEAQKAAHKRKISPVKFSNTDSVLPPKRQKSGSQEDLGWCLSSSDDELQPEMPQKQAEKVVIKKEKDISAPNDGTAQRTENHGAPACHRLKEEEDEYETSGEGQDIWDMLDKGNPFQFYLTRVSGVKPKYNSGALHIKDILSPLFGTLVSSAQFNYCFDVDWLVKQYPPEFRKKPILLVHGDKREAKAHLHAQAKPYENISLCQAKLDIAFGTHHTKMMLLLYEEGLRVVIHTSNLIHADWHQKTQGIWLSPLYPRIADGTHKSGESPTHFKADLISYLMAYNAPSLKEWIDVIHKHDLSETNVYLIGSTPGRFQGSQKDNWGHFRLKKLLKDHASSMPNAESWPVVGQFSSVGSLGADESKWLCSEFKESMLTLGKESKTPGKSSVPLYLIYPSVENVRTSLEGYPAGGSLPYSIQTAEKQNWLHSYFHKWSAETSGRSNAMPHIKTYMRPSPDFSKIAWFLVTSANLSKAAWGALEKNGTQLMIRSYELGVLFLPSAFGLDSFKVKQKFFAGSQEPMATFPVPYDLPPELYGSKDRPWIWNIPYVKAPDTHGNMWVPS

SF-539 [11] = assay: Cytotoxicity against human SF539 cells assessed as growth inhibition at 100 uM after 48 hrs by sulforhodamine B assay; format: functional, cell-based

Compound: Nc1c(C(=O)Nc2ccccc2)sc2nc3c(cc12)CCC3
- growth at 10 µM [1]: 79.5%

Compound: COc1cccc(NC(=O)c2sc3nc4c(cc3c2N)CCCC4)c1
- Activity (MDA-MB-468 [2]): inactive
- GI50 (786-0 [3]): 0.42 µM
- Activity (SF-539 [4]): inactive
- growth at 10 µM [1]: 28.2%
- Activity (786-0 [5]): inactive
- GI50 (MDA-MB-435 [6]): 0.15 µM
- CC50 (MDA-MB-435 [6]): 13.5 µM
- GI50 (MDA-MB-468 [7]): 0.239 µM
- GI50 [8]: 0.368 µM

Compound: Cc1cccc(NC(=O)c2sc3nc4c(cc3c2N)CCC4)c1C
- GI50 (786-0 [3]): 0.367 µM
- CC50 (786-0 [3]): 14.3 µM
- growth at 10 µM [1]: 23.6%
- GI50 (MDA-MB-435 [6]): 0.052 µM
- CC50 (MDA-MB-435 [6]): 22.7 µM
- GI50 (MDA-MB-468 [7]): 0.197 µM
- CC50 (MDA-MB-468 [7]): 71.2 µM
- GI50 [8]: 0.241 µM
- CC50 [8]: 72.4 µM

Compound: Nc1c(C(=O)Nc2ccccc2)sc2nc3c(cc12)CCCC3
- Activity (MDA-MB-435 [9]): inactive
- Activity (MDA-MB-468 [2]): inactive
- GI50 (786-0 [3]): 0.656 µM
- Activity (SF-539 [4]): inactive
- growth at 10 µM [1]: 30.3%
- Activity (786-0 [5]): inactive
- GI50 (MDA-MB-435 [6]): 0.172 µM
- GI50 (MDA-MB-468 [7]): 0.303 µM
- GI50 [8]: 0.416 µM

Compound: Nc1c(C(=O)Nc2ccccc2Cl)sc2nc3c(cc12)CCCCCC3
- Activity (MDA-MB-468 [2]): inactive
- IC50 [10]: 1 µM
- GI50 (786-0 [3]): 1.75 µM
- CC50 (786-0 [3]): 6.12 µM
- growth at 10 µM [1]: 29%
- GI50 (MDA-MB-435 [6]): 0.275 µM
- CC50 (MDA-MB-435 [6]): 20.9 µM
- GI50 (MDA-MB-468 [7]): 2.25 µM
- GI50 [8]: 2.65 µM
- CC50 [8]: 46.6 µM

Compound: Nc1c(C(=O)Nc2ccccc2C(F)(F)F)sc2nc3c(cc12)CCC3
- IC50 [10]: > 15 µM

Compound: CCC1CCc2nc3sc(C(=O)Nc4cccc(F)c4)c(N)c3cc2C1 (racemic)
- Activity (MDA-MB-435 [9]): inactive
- Activity (MDA-MB-468 [2]): inactive
- growth inhibition (GI) (SF-539 [11]): inactive
- GI50 (786-0 [3]): 0.701 µM
- Activity (SF-539 [4]): inactive
- growth at 10 µM [1]: 60.3%
- Activity (786-0 [5]): inactive
- GI50 (MDA-MB-435 [6]): 0.11 µM
- GI50 (MDA-MB-468 [7]): 0.471 µM

Compound: CCC1CCc2nc3sc(C(=O)Nc4ccccc4C)c(N)c3cc2C1 (racemic)
- Activity (MDA-MB-468 [2]): inactive
- GI50 (786-0 [3]): 0.371 µM
- Activity (SF-539 [4]): inactive
- growth at 10 µM [1]: 36.5%
- Activity (786-0 [5]): inactive
- GI50 (MDA-MB-435 [6]): 0.104 µM
- GI50 (MDA-MB-468 [7]): 0.244 µM
- GI50 [8]: 0.398 µM

Compound: Nc1c(C(=O)Nc2cccc(C(F)(F)F)c2)sc2nc3c(cc12)CCCCCC3
- IC50 [10]: 0.5 µM
- GI50 (786-0 [3]): 1.6 µM
- CC50 (786-0 [3]): 6.07 µM
- growth at 10 µM [1]: 7%
- GI50 (MDA-MB-435 [6]): 2.1 µM
- CC50 (MDA-MB-435 [6]): 59.2 µM
- GI50 (MDA-MB-468 [7]): 0.798 µM
- CC50 (MDA-MB-468 [7]): 15.4 µM
- GI50 [8]: 1.71 µM
- CC50 [8]: 6.65 µM

Compound: Nc1c(C(=O)Nc2ccccc2Cl)sc2nc3c(cc12)CCCC3
- growth at 10 µM [1]: 99.4%

Compound: CCC1CCc2nc3sc(C(=O)Nc4ccccc4F)c(N)c3cc2C1 (racemic)
- Activity (MDA-MB-435 [9]): inactive
- Activity (MDA-MB-468 [2]): inactive
- GI50 (786-0 [3]): 41.7 µM
- Activity (SF-539 [4]): inactive
- growth at 10 µM [1]: 61.1%
- Activity (786-0 [5]): inactive
- GI50 (MDA-MB-435 [6]): 0.133 µM
- GI50 (MDA-MB-468 [7]): 0.347 µM
- GI50 [8]: 10 µM

Compound: Nc1c(C(=O)Nc2ccccc2F)sc2nc3c(cc12)CCC3
- growth at 10 µM [1]: 102%

Compound: Nc1c(C(=O)Nc2ccccc2)sc2nc3c(cc12)CCCCC3
- Activity (MDA-MB-435 [9]): inactive
- Activity (MDA-MB-468 [2]): inactive
- GI50 (786-0 [3]): 0.465 µM
- growth at 10 µM [1]: 14.7%
- Activity (786-0 [5]): inactive
- GI50 (MDA-MB-435 [6]): 0.205 µM
- GI50 (MDA-MB-468 [7]): 0.254 µM
- GI50 [8]: 0.307 µM
- CC50 [8]: 94.3 µM

Compound: Nc1c(C(=O)Nc2cccc(C(F)(F)F)c2)sc2nc3c(cc12)CCCCC3
- Activity (MDA-MB-435 [9]): inactive
- GI50 (786-0 [3]): 1.58 µM
- CC50 (786-0 [3]): 6.24 µM
- growth at 10 µM [1]: 10%
- GI50 (MDA-MB-435 [6]): 2.53 µM
- GI50 (MDA-MB-468 [7]): 0.394 µM
- CC50 (MDA-MB-468 [7]): 31 µM
- GI50 [8]: 1.94 µM
- CC50 [8]: 11.3 µM

Compound: Nc1c(C(=O)Nc2c(Cl)cccc2Cl)sc2nc3c(cc12)CCCCC3
- growth at 10 µM [1]: 52.1%

Compound: Nc1c(C(=O)Nc2cccc(C(F)(F)F)c2)sc2nc3c(cc12)C(=O)CC3
- IC50 [10]: 1.7 µM

Compound: Nc1c(C(=O)Nc2ccccc2C(F)(F)F)sc2nc3c(cc12)CCCCCC3
- growth at 10 µM [1]: 80.2%

Compound: Nc1c(C(=O)Nc2ccccc2)sc2nc3c(cc12)CCCCCC3
- Activity (MDA-MB-468 [2]): inactive
- GI50 (786-0 [3]): 0.354 µM
- CC50 (786-0 [3]): 10.2 µM
- growth at 10 µM [1]: 12.5%
- GI50 (MDA-MB-435 [6]): 0.052 µM
- CC50 (MDA-MB-435 [6]): 0.897 µM
- GI50 (MDA-MB-468 [7]): 0.291 µM
- GI50 [8]: 0.217 µM
- CC50 [8]: 3.2 µM

Compound: CCC1CCc2nc3sc(C(=O)Nc4cccc(C)c4)c(N)c3cc2C1 (racemic)
- growth at 10 µM [1]: 69.7%

Compound: Cc1cccc(NC(=O)c2sc3nc4c(cc3c2N)CCCC4)c1
- Activity (MDA-MB-435 [9]): inactive
- Activity (MDA-MB-468 [2]): inactive
- GI50 (786-0 [3]): 4.13 µM
- Activity (SF-539 [4]): inactive
- growth at 10 µM [1]: 39.9%
- Activity (786-0 [5]): inactive
- GI50 (MDA-MB-435 [6]): 0.305 µM
- GI50 (MDA-MB-468 [7]): 1.75 µM
- GI50 [8]: 4.74 µM

Compound: Nc1c(C(=O)Nc2cccc(C(F)(F)F)c2)sc2nc3c(cc12)CCCC3
- growth at 10 µM [1]: 88.1%

Compound: Nc1c(C(=O)Nc2ccccc2C(F)(F)F)sc2nc3c(cc12)CCCC3
- growth at 10 µM [1]: 90.6%

Compound: Nc1c(C(=O)Nc2ccccc2F)sc2nc3c(cc12)CCCC3
- growth at 10 µM [1]: 34.5%
